These results are taken from ChEMBL document CHEMBL5050844 (2019).

The term IC50 denotes the concentration that inhibits the measured activity by half.

Assay [1] is described as follows: Induction of anti-CD3 antibodies-stimulated human T cell activation at 8 uM assessed fold increase in CD25 expression measured by ELISA assay. Also: reference of the scale not given here. Format: functional, T cell line. For orientation: An ELISA detects its analyte on a solid surface through an enzyme-linked reagent.
The nature of assay [2]: Induction of anti-CD3 antibodies-stimulated human T cell activation at 1 uM assessed fold increase in CD25 expression measured by ELISA assay. Also: reference of the scale not given here. In kind it is functional, T cell line.
Assay [3] can be described thus: Induction of anti-CD3/CD28 antibodies-stimulated human T cell activation at 1 uM assessed fold increase in CD25 expression measured by ELISA assay. In kind it is functional, T cell line.
In assay [4] the target is E3 ubiquitin-protein ligase CBL-B (Homo sapiens, UniProt Q13191). The assay is described as follows: Inhibition of N-terminal Avi-tagged human CBL-B (36 to 427 residues) incubated with 60 nM Src kinase for 1.5 hrs followed by incubation with fluorescently labeled UbcH5B-Ub for 1 hr and measured by TR-FRET assay. In kind it is single protein. In general terms: TR-FRET usually uses a lanthanide donor and a delayed reading to cut background.
Chain of E3 ubiquitin-protein ligase CBL-B (Q13191 whole entry, the tested form may be a part): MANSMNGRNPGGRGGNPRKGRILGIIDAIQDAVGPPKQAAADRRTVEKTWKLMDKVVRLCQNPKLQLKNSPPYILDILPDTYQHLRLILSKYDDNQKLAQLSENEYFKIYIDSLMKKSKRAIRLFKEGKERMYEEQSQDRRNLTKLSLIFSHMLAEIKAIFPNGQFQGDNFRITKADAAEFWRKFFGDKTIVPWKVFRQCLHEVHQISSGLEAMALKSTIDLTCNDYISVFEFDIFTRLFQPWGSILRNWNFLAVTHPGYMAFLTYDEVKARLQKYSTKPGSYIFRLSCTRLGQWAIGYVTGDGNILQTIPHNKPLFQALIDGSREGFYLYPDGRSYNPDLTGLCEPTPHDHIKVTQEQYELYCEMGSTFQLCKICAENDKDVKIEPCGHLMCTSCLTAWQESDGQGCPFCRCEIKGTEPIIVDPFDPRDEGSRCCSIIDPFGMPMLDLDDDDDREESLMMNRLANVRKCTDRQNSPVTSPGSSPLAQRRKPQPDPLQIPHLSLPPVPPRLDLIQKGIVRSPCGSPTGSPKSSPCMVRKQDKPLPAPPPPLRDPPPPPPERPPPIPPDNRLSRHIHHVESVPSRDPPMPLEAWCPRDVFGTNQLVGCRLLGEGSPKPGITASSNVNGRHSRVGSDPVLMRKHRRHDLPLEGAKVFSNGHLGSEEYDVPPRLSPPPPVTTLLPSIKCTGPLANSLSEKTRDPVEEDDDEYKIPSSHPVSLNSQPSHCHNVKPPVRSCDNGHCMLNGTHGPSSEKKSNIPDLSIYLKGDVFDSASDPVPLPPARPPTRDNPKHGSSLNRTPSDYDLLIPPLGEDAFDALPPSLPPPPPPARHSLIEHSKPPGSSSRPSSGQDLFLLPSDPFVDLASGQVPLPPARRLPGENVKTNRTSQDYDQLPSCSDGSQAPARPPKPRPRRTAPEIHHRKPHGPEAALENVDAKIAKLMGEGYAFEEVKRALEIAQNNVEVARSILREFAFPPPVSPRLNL

Assay [5] is described as follows: Induction of anti-CD3 antibodies-stimulated human T cell activation at 8 uM assessed fold increase in IL-2 secretion measured by ELISA assay. Also: reference of the scale not given here. In kind it is functional, T cell line.
Assay [6] in a line: Induction of anti-CD3 antibodies-stimulated human T cell activation at 1 uM assessed fold increase in IL-2 secretion measured by ELISA assay. Also: reference of the scale not given here. Format: functional, T cell line.
Assay [7] is described as follows: Induction of anti-CD3/CD28 antibodies-stimulated human T cell activation at 4 uM assessed fold increase in IL-2 secretion measured by ELISA assay. In kind it is functional, T cell line.
A short description of assay [8]: Induction of anti-CD3/CD28 antibodies-stimulated human T cell activation at 0.3 uM assessed fold increase in CD25 expression measured by ELISA assay. In kind it is functional, T cell line.
The nature of assay [9]: Induction of anti-CD3/CD28 antibodies-stimulated human T cell activation at 0.3 uM assessed fold increase in IL-2 secretion measured by ELISA assay. Format: functional, T cell line.
Assay [10] can be described thus: Induction of anti-CD3/CD28 antibodies-stimulated human T cell activation at 1 uM assessed fold increase in IL-2 secretion measured by ELISA assay. In kind it is functional, T cell line.
Assay [11] in a line: Induction of anti-CD3/CD28 antibodies-stimulated human T cell activation at 4 uM assessed fold increase in CD25 expression measured by ELISA assay. Format: functional, T cell line.

SMILES strings stand for the structures. A value given as a limit tells only on which side of the number the result lay.

As for `Cn1cnnc1CC1(c2cccc(N3Cc4c(cc(CN5CC(C)(F)C5)cc4C(F)(F)F)C3=O)c2)COC1`, the “fold change (FC)” value in assay [1] is “>=1.001”; in assay [2] it was “>=1.001”; in assay [3], 1.51; in [5], “>=0.201”; in assay [6] it was “>=0.201”; in assay [7], “>=7.5”. Moreover, the “fold change (FC)” value is 1.31 in [8], “>=7.5” in [9], “>=7.5” in assay [10] and 1.51 in [11]. The compound also registered an IC50 in assay [4] of under 100 nM.
Regarding `C[C@H](Cc1nncn1C)c1cccc(N2Cc3c(cc(C(=O)N4CC[C@H](O)C4)cc3C3CC3)C2=O)c1`, the “fold change (FC)” value in assay [1] is “>=1.001”; in [2] it was 0.801; in assay [3], 1.01; in assay [5], 0.101; in [6], 0.051; in [7], 2.51. Further, the “fold change (FC)” value in assay [8] is reported as 1.01; in assay [9] it was 1.01; in assay [10], 2.51; in [11], 1.31. This compound also yielded an IC50 in [4] of under 100 nM.
As for `C[C@H](Cc1nncn1C)c1cccc(N2Cc3c(cc(C(=O)N4CC(O)C4)cc3C(F)(F)F)C2=O)c1`, the “fold change (FC)” value in [1] is recorded as “>=1.001”; in assay [2], 0.801; in assay [3], 1.01; in assay [5] it was 0.151; in assay [6], 0.051; in assay [7], “>=7.5”. Also, the “fold change (FC)” value in [8] amounted to 1.01; in assay [9], 1.01; in assay [10], 2.51; in [11], 1.31. The half-inhibitory concentration (IC50) in assay [4] was under 100 nM.
For the compound `C[C@H](Sc1nncn1C)c1cccc(NC(=O)c2ccc(C#N)c(C3CC3)n2)c1`, the “fold change (FC)” value is “>=1.001” in assay [1]; 0.601 in [2]; 1.31 in [3]; 0.101 in [5]; “<=0.05” in assay [6]; 5 in [7]. Also, the “fold change (FC)” value in [8] is on record as 1.01; in [9] it was 1.01; in assay [10], 2.51; in assay [11], 1.31. The compound also registered an IC50 in assay [4] of under 100 nM.
`Cc1cc(C(=O)Nc2cccc([C@H](C)Cc3nncn3C)c2)nc(C(F)(F)F)n1`: the “fold change (FC)” value in assay [1] is listed as “>=1.001”; in assay [2], 0.801; in assay [3], 1.51; in [5], “>=0.201”; in assay [6] it was “>=0.201”; in assay [7], “>=7.5”. For the same compound, the “fold change (FC)” value in assay [8] is on record as 1.01; in [9] it was 2.51; in assay [10], “>=7.5”; in assay [11] it was “>=1.76”. Further, the IC50 in assay [4] was under 100 nM.
Turning to `Cc1cc(C(=O)Nc2cccc(C3(Cc4nncn4C)COC3)c2)nc(C(F)(F)F)n1`, the “fold change (FC)” value is listed as “>=1.001” in assay [1]; 0.801 in [2]; 1.01 in assay [3]; “>=0.201” in assay [5]; 0.101 in assay [6]; “>=7.5” in [7]. In addition, the “fold change (FC)” value was 1.01 in assay [8], 1.01 in [9], 2.51 in [10] and 1.01 in assay [11]. Besides, the IC50 in assay [4] was under 100 nM.
Turning to `C[C@H](Sc1nncn1C)c1cccc(NC(=O)c2ccnc(C3CC3)n2)c1`, the “fold change (FC)” value in assay [1] is “>=1.001”; in assay [2], 0.601; in assay [3], 1.01; in assay [5], 0.051; in assay [6] it was “<=0.05”; in assay [7] it was 5. The “fold change (FC)” value is 1.01 in assay [8], “<=1” in [9], 2.51 in assay [10] and 1.31 in assay [11]. Also, in assay [4], the IC50 was under 100 nM.
As to `Cn1cnnc1CC1(c2cccc(N3Cc4c(cc(CN5CC(C#N)C5)cc4C(F)(F)F)C3=O)c2)COC1`, the “fold change (FC)” value in [1] is “>=1.001”; in assay [2] it was 0.801; in [3], 1.01; in [5] it was “>=0.201”; in assay [6], 0.151; in [7], “>=7.5”. Besides, the “fold change (FC)” value in assay [8] is given as 1.01; in assay [9], 2.51; in assay [10] it was 5; in assay [11], 1.31. For the same compound, the IC50 in [4] is under 100 nM.
Turning to `CN1CC2CCC(C1)N2c1cc2c(c(C(F)(F)F)c1)CN(c1cccc([C@@](C)(F)C(F)(F)c3nncn3C)c1)C2=O`, the “fold change (FC)” value in assay [1] is recorded as “>=1.001”; in assay [2] it was “>=1.001”; in assay [3] it was 1.51; in assay [5], “>=0.201”; in assay [6] it was “>=0.201”; in assay [7], “>=7.5”. The “fold change (FC)” value in assay [8] is 1.31; in assay [9] it was 5; in assay [10], “>=7.5”; in assay [11], 1.51. Besides, the IC50 in [4] was under 100 nM.
As to `C[C@H](Cc1nncn1C)c1cccc(NC(=O)c2cc(O[C@H]3CC[C@@H](O)C3)ccn2)c1`, the “fold change (FC)” value in assay [1] is reported as 0.801; in assay [2], 0.801; in assay [3], 1.01; in [5], 0.051; in [6] it was “<=0.05”; in assay [7] it was 2.51. The “fold change (FC)” value in assay [8], in assay [9], in assay [10] and in [11] was 1.01 each time.
With `C[C@H](Cc1nncn1C)c1cc(N[C@@H](C)CO)nc(N2Cc3c(cccc3C(F)(F)F)C2=O)c1`, the “fold change (FC)” value in [1] is “>=1.001”; in [2], 0.601; in assay [3], 1.01; in assay [5], 0.151; in assay [6], 0.051; in assay [7], 2.51. In addition, the “fold change (FC)” value in assay [8], in assay [9], in assay [10] and in assay [11] was 1.01 in each case.
Turning to `C[C@H](Sc1nncn1C)c1cccc(NC(=O)c2cc(C(F)(F)F)cc(C(F)(F)F)n2)c1`, the “fold change (FC)” value in assay [1] was 0.601; in assay [2], “<=0.6”; in [3], “<=1”; in assay [5], “<=0.05”; in [6] it was “<=0.05”; in assay [7], 1.01. Moreover, the “fold change (FC)” value was “<=1” in assay [8], “<=1” in assay [9], “<=1” in [10] and 1.01 in assay [11].
